Measurements published in publication PMC9960487, “A novel Menin-MLL1 inhibitor, DS-1594a, prevents the progression of acute leukemia with rearranged MLL1 or mutated NPM1” (Cancer Cell International, 2023).

Target: T1, hERG channel (Homo sapiens, UniProt Q12809)
T1 construct: gene KCNH2
Assay: inhibition of hERG channel current (data not shown)
Type: cell-based

T1 sequence (Q12809 whole entry): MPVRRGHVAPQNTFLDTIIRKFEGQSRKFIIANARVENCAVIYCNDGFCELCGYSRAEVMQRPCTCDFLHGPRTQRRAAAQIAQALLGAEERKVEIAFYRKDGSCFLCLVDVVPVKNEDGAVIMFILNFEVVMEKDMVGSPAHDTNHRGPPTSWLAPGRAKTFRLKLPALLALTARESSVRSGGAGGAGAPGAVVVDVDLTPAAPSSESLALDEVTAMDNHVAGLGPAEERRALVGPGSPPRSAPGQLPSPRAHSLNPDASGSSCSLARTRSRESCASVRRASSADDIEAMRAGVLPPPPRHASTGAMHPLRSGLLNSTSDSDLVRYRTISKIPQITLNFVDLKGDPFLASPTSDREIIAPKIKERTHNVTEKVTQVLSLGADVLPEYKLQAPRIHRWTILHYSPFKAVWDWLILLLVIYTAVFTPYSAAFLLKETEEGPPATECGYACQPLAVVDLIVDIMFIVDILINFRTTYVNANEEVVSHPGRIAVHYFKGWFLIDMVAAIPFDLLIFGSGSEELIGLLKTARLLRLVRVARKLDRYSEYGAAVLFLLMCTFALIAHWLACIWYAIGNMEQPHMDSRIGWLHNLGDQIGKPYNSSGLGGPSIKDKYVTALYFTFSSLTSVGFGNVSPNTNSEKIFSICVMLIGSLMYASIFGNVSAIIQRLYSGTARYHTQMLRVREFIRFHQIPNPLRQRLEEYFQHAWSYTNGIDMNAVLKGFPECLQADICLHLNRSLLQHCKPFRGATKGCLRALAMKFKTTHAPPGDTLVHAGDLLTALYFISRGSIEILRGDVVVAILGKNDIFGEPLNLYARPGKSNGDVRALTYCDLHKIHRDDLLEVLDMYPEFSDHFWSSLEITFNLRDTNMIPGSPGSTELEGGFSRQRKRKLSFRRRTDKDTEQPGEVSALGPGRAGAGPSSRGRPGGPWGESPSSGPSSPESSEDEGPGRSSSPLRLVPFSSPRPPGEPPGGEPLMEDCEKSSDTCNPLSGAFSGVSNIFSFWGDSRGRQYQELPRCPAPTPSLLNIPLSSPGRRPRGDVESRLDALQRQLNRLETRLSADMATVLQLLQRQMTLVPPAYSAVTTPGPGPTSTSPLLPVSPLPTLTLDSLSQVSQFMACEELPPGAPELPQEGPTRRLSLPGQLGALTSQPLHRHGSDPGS

## COc1cc(-c2ccc(CN[C@H]3C[C@@H](O)[C@@H](N(C)c4ncnc5sc(CC(F)(F)F)cc45)C3)cc2)nnc1OC [DS-1594a, (1R, 2S, 4R)-4-({[4-(5,6-dimethoxypyridazin-3-yl)phenyl]methyl}amino)-2-{methyl[6-(2,2,2-trifluoroethyl)thieno[2,3-d]pyrimidin-4-yl]amino}cyclopentan-1-ol]
  IC50: 300 nM
